From PMC4533833 (ACS chemical biology, 2015)
Read-outs that look alike come from different tables or passages of the source.

Tests used:
V561M FGFR1 = assay: Intrinsic protein fluorescence quenching titration, V561M FGFR1; type: binding, Human; conditions: for fold decrease in affinity (increase in Kd) for V561M relative to WT FGFR1: Kd V561M FGFR1 versus Kd WT FGFR1
FGFR1 [1] = conditions: read-out: IC50 (enzyme); cited from earlier work
FGFR1 [2] = conditions: read-out: IC50 (cells); cited from earlier work

Compound | fold greater loss of affinity for E3810 compared to AZD4547 conferred by the V561M FGFR1 mutation (V561M FGFR1; E3810 versus AZD4547) | fold decrease in affinity (increase in Kd) for V561M relative to WT FGFR1 (V561M FGFR1) | IC50 (FGFR1 [1]) | IC50 (FGFR1 [2])
CNC(=O)c1cccc2cc(Oc3ccnc4cc(OCC5(N)CC5)c(OC)cc34)ccc12 [E3810] | over 150 fold | 5000 fold | – | –
AZD4547 | – | 32 fold | 0.2 nM | 12 nM
